Results on seven compounds are retold here after publication PMC8214221, “Sequence determinants in the cathelicidin LL-37 that promote inflammation via presentation of RNA to scavenger receptors” (The Journal of Biological Chemistry, 2021).

Residues, ends and D or L forms follow the SMILES beside them.

The test system of the data set is normal human epidermal keratinocytes (NHEKs). Kind of data set: LDH release cytotoxicity assay in keratinocytes. Format: cell-based. The note with it: minimal concentration giving 50% LDH release by NHEKs. From the text: Since LL-34 was the minimal truncation mutant of LL-37 that retained both antimicrobial and immune modulatory activity, we prepared a series of synthetic peptides with sequential substitutions of alanine at each amino acid position of the LL-34 parent peptide (Table 1). We compared the minimum inhibitory concentration (MIC) for the LL-34 parent peptide and the alanine mutants (LL-34 peptides—L1A and R34A) against methicillin-resistant Staphylococcus aureus strain USA300 (Fig. 1A). LL-34 peptides were incubated at concentrations of 0 to 100 μM with bacteria. The minimal concentration at which no growth was observed was noted after 18 h of incubation. […] Because of these changes in the MIC against S. aureus between the mutants, we investigated the effective toxicity profile of the peptides in normal human epidermal keratinocytes (NHEKs) by lactate dehydrogenase (LDH) release assay (Table 1). […] Most other peptides were cytotoxic at a minimal concentration of 10 μM, whereas LL-34—K15A was toxic at a concentration of 2.5 μM.
LDH cytotoxicity assay was performed according to manufacturer's instructions (Thermo Fisher Scientific). Culture supernatants from keratinocytes were used fresh for LDH assay after experimental treatments.
On the technique in general: Release of lactate dehydrogenase indicates damage to the cell membrane.
`CC[C@H](C)[C@H](NC(=O)[C@H](CCCCN)NC(=O)[C@H](CCC(=O)O)NC(=O)[C@H](C)NC(=O)[C@H](CO)NC(=O)[C@H](CCCCN)NC(=O)[C@H](CCCNC(=N)N)NC(=O)[C@H](Cc1ccccc1)NC(=O)[C@H](Cc1ccccc1)NC(=O)[C@H](CC(=O)O)NC(=O)CNC(=O)[C@H](CC(C)C)NC(=O)[C@@H](N)CC(C)C)C(=O)NCC(=O)N[C@@H](CCCCN)C(=O)N[C@@H](CCC(=O)O)C(=O)N[C@@H](Cc1ccccc1)C(=O)N[C@@H](CCCCN)C(=O)N[C@@H](CCCNC(=N)N)C(=O)N[C@H](C(=O)N[C@H](C(=O)N[C@@H](CCC(N)=O)C(=O)N[C@@H](CCCNC(=N)N)C(=O)N[C@H](C(=O)N[C@@H](CCCCN)C(=O)N[C@@H](CC(=O)O)C(=O)N[C@@H](Cc1ccccc1)C(=O)N[C@@H](CC(C)C)C(=O)N[C@@H](CCCNC(=N)N)C(=O)N[C@@H](CC(N)=O)C(=O)N[C@@H](CC(C)C)C(=O)N[C@H](C(=O)N1CCC[C@H]1C(=O)N[C@@H](CCCNC(=N)N)C(=O)O)C(C)C)[C@@H](C)CC)C(C)C)[C@@H](C)CC` [LL-34—K10A] (H-LLGDFFRKSAEKIGKEFKRIVQRIKDFLRNLVPR-OH; N-terminus and C-terminus assumed): the “Minimal cytotoxic concentration in NHEK (LD50)” value (from here on “Minimal cytotoxic concentration”) was determined as 5 µM.

`CC[C@H](C)[C@H](NC(=O)[C@H](CCCCN)NC(=O)[C@H](CCC(=O)O)NC(=O)[C@H](CCCCN)NC(=O)[C@H](CO)NC(=O)[C@H](CCCCN)NC(=O)[C@H](CCCNC(=N)N)NC(=O)[C@H](Cc1ccccc1)NC(=O)[C@H](Cc1ccccc1)NC(=O)[C@H](CC(=O)O)NC(=O)CNC(=O)[C@H](CC(C)C)NC(=O)[C@@H](N)CC(C)C)C(=O)NCC(=O)N[C@@H](C)C(=O)N[C@@H](CCC(=O)O)C(=O)N[C@@H](Cc1ccccc1)C(=O)N[C@@H](CCCCN)C(=O)N[C@@H](CCCNC(=N)N)C(=O)N[C@H](C(=O)N[C@H](C(=O)N[C@@H](CCC(N)=O)C(=O)N[C@@H](CCCNC(=N)N)C(=O)N[C@H](C(=O)N[C@@H](CCCCN)C(=O)N[C@@H](CC(=O)O)C(=O)N[C@@H](Cc1ccccc1)C(=O)N[C@@H](CC(C)C)C(=O)N[C@@H](CCCNC(=N)N)C(=O)N[C@@H](CC(N)=O)C(=O)N[C@@H](CC(C)C)C(=O)N[C@H](C(=O)N1CCC[C@H]1C(=O)N[C@@H](CCCNC(=N)N)C(=O)O)C(C)C)[C@@H](C)CC)C(C)C)[C@@H](C)CC` [LL-34—K15A] (H-LLGDFFRKSKEKIGAEFKRIVQRIKDFLRNLVPR-OH; N-terminus and C-terminus assumed): the “Minimal cytotoxic concentration” value worked out at 2.5 µM.

With `CC[C@H](C)[C@H](NC(=O)[C@H](CCCCN)NC(=O)[C@H](CCC(=O)O)NC(=O)[C@H](CCCCN)NC(=O)[C@H](CO)NC(=O)[C@H](CCCCN)NC(=O)[C@H](CCCNC(=N)N)NC(=O)[C@H](Cc1ccccc1)NC(=O)[C@H](Cc1ccccc1)NC(=O)[C@H](CC(=O)O)NC(=O)CNC(=O)[C@H](CC(C)C)NC(=O)[C@@H](N)CC(C)C)C(=O)NCC(=O)N[C@@H](CCCCN)C(=O)N[C@@H](CCC(=O)O)C(=O)N[C@@H](Cc1ccccc1)C(=O)N[C@@H](C)C(=O)N[C@@H](CCCNC(=N)N)C(=O)N[C@H](C(=O)N[C@H](C(=O)N[C@@H](CCC(N)=O)C(=O)N[C@@H](CCCNC(=N)N)C(=O)N[C@H](C(=O)N[C@@H](CCCCN)C(=O)N[C@@H](CC(=O)O)C(=O)N[C@@H](Cc1ccccc1)C(=O)N[C@@H](CC(C)C)C(=O)N[C@@H](CCCNC(=N)N)C(=O)N[C@@H](CC(N)=O)C(=O)N[C@@H](CC(C)C)C(=O)N[C@H](C(=O)N1CCC[C@H]1C(=O)N[C@@H](CCCNC(=N)N)C(=O)O)C(C)C)[C@@H](C)CC)C(C)C)[C@@H](C)CC` [LL-34—K18A] (H-LLGDFFRKSKEKIGKEFARIVQRIKDFLRNLVPR-OH; N-terminus and C-terminus assumed), the “Minimal cytotoxic concentration” value is 10 µM.

Regarding `CC[C@H](C)[C@H](NC(=O)[C@H](CCCCN)NC(=O)[C@H](CCC(=O)O)NC(=O)[C@H](CCCCN)NC(=O)[C@H](CO)NC(=O)[C@H](CCCCN)NC(=O)[C@H](CCCNC(=N)N)NC(=O)[C@H](Cc1ccccc1)NC(=O)[C@H](Cc1ccccc1)NC(=O)[C@H](CC(=O)O)NC(=O)CNC(=O)[C@H](CC(C)C)NC(=O)[C@H](C)N)C(=O)NCC(=O)N[C@@H](CCCCN)C(=O)N[C@@H](CCC(=O)O)C(=O)N[C@@H](Cc1ccccc1)C(=O)N[C@@H](CCCCN)C(=O)N[C@@H](CCCNC(=N)N)C(=O)N[C@H](C(=O)N[C@H](C(=O)N[C@@H](CCC(N)=O)C(=O)N[C@@H](CCCNC(=N)N)C(=O)N[C@H](C(=O)N[C@@H](CCCCN)C(=O)N[C@@H](CC(=O)O)C(=O)N[C@@H](Cc1ccccc1)C(=O)N[C@@H](CC(C)C)C(=O)N[C@@H](CCCNC(=N)N)C(=O)N[C@@H](CC(N)=O)C(=O)N[C@@H](CC(C)C)C(=O)N[C@H](C(=O)N1CCC[C@H]1C(=O)N[C@@H](CCCNC(=N)N)C(=O)O)C(C)C)[C@@H](C)CC)C(C)C)[C@@H](C)CC` [LL-34—L1A] (H-ALGDFFRKSKEKIGKEFKRIVQRIKDFLRNLVPR-OH; N-terminus and C-terminus assumed), the “Minimal cytotoxic concentration” value worked out at 5 µM.

Regarding `CC[C@H](C)[C@H](NC(=O)[C@H](CCCCN)NC(=O)[C@H](CCC(=O)O)NC(=O)[C@H](CCCCN)NC(=O)[C@H](CO)NC(=O)[C@H](CCCCN)NC(=O)[C@H](CCCNC(=N)N)NC(=O)[C@H](Cc1ccccc1)NC(=O)[C@H](Cc1ccccc1)NC(=O)[C@H](CC(=O)O)NC(=O)CNC(=O)[C@H](C)NC(=O)[C@@H](N)CC(C)C)C(=O)NCC(=O)N[C@@H](CCCCN)C(=O)N[C@@H](CCC(=O)O)C(=O)N[C@@H](Cc1ccccc1)C(=O)N[C@@H](CCCCN)C(=O)N[C@@H](CCCNC(=N)N)C(=O)N[C@H](C(=O)N[C@H](C(=O)N[C@@H](CCC(N)=O)C(=O)N[C@@H](CCCNC(=N)N)C(=O)N[C@H](C(=O)N[C@@H](CCCCN)C(=O)N[C@@H](CC(=O)O)C(=O)N[C@@H](Cc1ccccc1)C(=O)N[C@@H](CC(C)C)C(=O)N[C@@H](CCCNC(=N)N)C(=O)N[C@@H](CC(N)=O)C(=O)N[C@@H](CC(C)C)C(=O)N[C@H](C(=O)N1CCC[C@H]1C(=O)N[C@@H](CCCNC(=N)N)C(=O)O)C(C)C)[C@@H](C)CC)C(C)C)[C@@H](C)CC` [LL-34—L2A] (H-LAGDFFRKSKEKIGKEFKRIVQRIKDFLRNLVPR-OH; N-terminus and C-terminus assumed), the “Minimal cytotoxic concentration” value worked out at 5 µM.

Consider `CC[C@H](C)[C@H](NC(=O)[C@H](CCCCN)NC(=O)[C@H](CCC(=O)O)NC(=O)[C@H](CCCCN)NC(=O)[C@H](CO)NC(=O)[C@H](CCCCN)NC(=O)[C@H](CCCNC(=N)N)NC(=O)[C@H](Cc1ccccc1)NC(=O)[C@H](Cc1ccccc1)NC(=O)[C@H](CC(=O)O)NC(=O)CNC(=O)[C@H](CC(C)C)NC(=O)[C@@H](N)CC(C)C)C(=O)NCC(=O)N[C@@H](CCCCN)C(=O)N[C@@H](CCC(=O)O)C(=O)N[C@@H](Cc1ccccc1)C(=O)N[C@@H](CCCCN)C(=O)N[C@@H](CCCNC(=N)N)C(=O)N[C@H](C(=O)N[C@H](C(=O)N[C@@H](CCC(N)=O)C(=O)N[C@@H](CCCNC(=N)N)C(=O)N[C@H](C(=O)N[C@@H](CCCCN)C(=O)N[C@@H](CC(=O)O)C(=O)N[C@@H](Cc1ccccc1)C(=O)N[C@@H](CC(C)C)C(=O)N[C@@H](CCCNC(=N)N)C(=O)N[C@@H](C)C(=O)N[C@@H](CC(C)C)C(=O)N[C@H](C(=O)N1CCC[C@H]1C(=O)N[C@@H](CCCNC(=N)N)C(=O)O)C(C)C)[C@@H](C)CC)C(C)C)[C@@H](C)CC` [LL-34—N30A] (H-LLGDFFRKSKEKIGKEFKRIVQRIKDFLRALVPR-OH; N-terminus and C-terminus assumed), for which the “Minimal cytotoxic concentration” value is 10 µM.

In the case of `CC[C@H](C)[C@H](NC(=O)[C@H](CCCCN)NC(=O)[C@H](CCC(=O)O)NC(=O)[C@H](CCCCN)NC(=O)[C@H](CO)NC(=O)[C@H](CCCCN)NC(=O)[C@H](CCCNC(=N)N)NC(=O)[C@H](Cc1ccccc1)NC(=O)[C@H](Cc1ccccc1)NC(=O)[C@H](CC(=O)O)NC(=O)CNC(=O)[C@H](CC(C)C)NC(=O)[C@@H](N)CC(C)C)C(=O)NCC(=O)N[C@@H](CCCCN)C(=O)N[C@@H](CCC(=O)O)C(=O)N[C@@H](Cc1ccccc1)C(=O)N[C@@H](CCCCN)C(=O)N[C@@H](CCCNC(=N)N)C(=O)N[C@H](C(=O)N[C@H](C(=O)N[C@@H](CCC(N)=O)C(=O)N[C@@H](CCCNC(=N)N)C(=O)N[C@H](C(=O)N[C@@H](CCCCN)C(=O)N[C@@H](CC(=O)O)C(=O)N[C@@H](Cc1ccccc1)C(=O)N[C@@H](CC(C)C)C(=O)N[C@@H](CCCNC(=N)N)C(=O)N[C@@H](CC(N)=O)C(=O)N[C@@H](CC(C)C)C(=O)N[C@H](C(=O)N[C@@H](C)C(=O)N[C@@H](CCCNC(=N)N)C(=O)O)C(C)C)[C@@H](C)CC)C(C)C)[C@@H](C)CC` [LL-34—P33A] (H-LLGDFFRKSKEKIGKEFKRIVQRIKDFLRNLVAR-OH; N-terminus and C-terminus assumed), the “Minimal cytotoxic concentration” value came out at 10 µM.
